In US20060111368A1, “Phosphodiesterase inhibitor” (Kyowa Hakko Kogyo Co., Ltd., priority 2002, published 2006):
Where a name gives a salt, the structure may show the parent alone. Read-outs that look alike come from different tables or passages of the source.

How the values were obtained:
[1] = target: T1, PDE10A (Homo sapiens, UniProt Q9Y233); assay: Activity of inhibiting PDE10A activity ([3H]cAMP decomposition inhibiting test); assay type: biochemical; details: for inhibition at 1 µM: read-out: [3H] cAMP decomposition inhibition rate (%); for IC50: read-out: IC50 (concentration at which to inhibit [3H]cAMP decomposition by 50%)
T1 construct: made in house; host or cells: Sf9 insect cells (baculovirus, pVL1393)
Protocol: Activity of Inhibiting PDE10A Activity (^3H]cAMP Decomposition Inhibiting Test)
PCR was performed using DNAs having base sequences described in SEQ ID NO. 1 and SEQ ID NO. 2 as primers and human kidney cDNA as a template to prepare a plasmid containing amplified fragments. The plasmid was cleaved with restriction endonucleases Pst I and Xba I to obtain a Pst I-Xba I fragment of 0.7 kb.
Meanwhile, Est clone (Cosmo Bio, Tokyo) of GenBank, ACCESSION WO 4835 was cleaved with restriction endonucleases Kpn I and Pst I to obtain a Kpn I-Pst I fragment of 1.5 kb.
The resulting Pst I-Xba I fragment of 0.7 kb and Kpn I-Pst I fragment of 1.5 kb were subcloned in a Kpn I-Xba I site of pBluescript II KS(−) (STRATAGENE, La Jolla, Calif., USA),to construct a plasmid having a cDNA fragment completely including a catalyst region of PDE10A. Subsequently, the plasmid was cleaved with restriction endonucleases Kpn I and Not I to obtain a Kpn I-Not I fragment of 2.2 kb.
The resulting Kpn I-Not I fragment of 2.2 kb and a linker having a BamH I-Kpn I cleavage surface prepared by synthetic DNA having base sequences described in SEQ ID NOS. 3 and 4 were subcloned in a BamH I-Not I site of pVL1393 (PharMingen, San Diego, Calif., USA) to obtain a plasmid for preparation of Baculovirus. The plasmid contains a DNA encoding a peptide in which methionine, FLAG tag and a peptide having a 64th to 779th amino acid sequence of PDE10A [GenBank, ACCESSION NP 006652: Gene, vol. 234, p. 109 (1999), J. Biol. Chem., vol. 274, p. 18438 (1999)] are bound in the order.
The above gene recombinational manipulation was performed according to the method described in Molecular Cloning, 2nd edition, Cold Spring Harbor Laboratory Press, New York (1989).
The expression of PDE10A was conducted according to the Baculovirus expression vector system manual (PharMingen) using insect cells. As insect cells, Sf9 cells (Asahi Technoglass, Tokyo) were used. Sf9 cells were infected with a supernatant (co-transfection sup) containing PDE10A expression virus prepared according to the manual, and cultured at 27° C. for 4 days. The cells were recovered, washed with a phosphate-buffered saline (PBS), and then suspended in an extraction solution [20 mmol/L Tris-acetate (pH 7.5), 2 mmol/L MgCl2, 1 mmol/L dithiothreitol, 1 mmol/L ethylenediaminetetraacetic acid (EDTA), 0.25 mol/L sucrose, 250 unit/mL aprotinin, 40 μg/mL phenylmethylsulfonyl fluoride, and 1 μg/mL pepstatin A]. The cells were disrupted in ice with the maximum output under conditions of 5 seconds and five times using an ultrasonic disruption machine (TOMY model UR-200R, TOMY, Tokyo). A soluble fraction was obtained by centrifugation under 10,000 rpm of the fraction at 4° C. for 30 minutes, and the resulting soluble fraction was used for measuring the PDE activity.
The PDE activity was measured according to the method described in Methods Enzymol., vol. 159, p. 457 (1988).
Using [^3H]cAMP as a substrate, an enzyme reaction was conducted in a reaction solution containing 300 μL of 50 mmol/L N,N-bis (2-hydroxyethyl)-2-aminoethanesulfonic acid (pH 7.2), 1 mmol/L MgCl2 and 0.1 mmol/L ethylene glycol-bis (β-aminoethyl ether)-N,N,N′,N′-tetraacetic acid: EGTA). The concentration of the substrate was 0.2 μmol/L. To 95 μL of an enzyme dilute solution were added 5 μL of a test compound (DMSO solution) and 200 μL of a substrate solution. The mixture was incubated at 30° C. for 20 minutes, and then HCl was added to stop the reaction. The reaction product (5′-AMP) was converted to adenosine using 5′-nucleotidase, and separated the unreacted product from the reactant by DEAE-Sephadex A-25 column (Amersham Pharmacia Biotech, Uppsala, Sweden). The elute was moved to scintillation vials, 6 mL of Ultima Gold (Packard Instrument, Meriden, Conn., USA) was added, and the radioactivity was measured for 2 minutes using a liquid scintillation counter (Beckman LS6500, Beckman, Tokyo),. […]

[2] = Test compound concentration 1 μmol/L, substrate [3H]cAMP 0.2 μmol/L

T1 sequence (Q9Y233 340-1055): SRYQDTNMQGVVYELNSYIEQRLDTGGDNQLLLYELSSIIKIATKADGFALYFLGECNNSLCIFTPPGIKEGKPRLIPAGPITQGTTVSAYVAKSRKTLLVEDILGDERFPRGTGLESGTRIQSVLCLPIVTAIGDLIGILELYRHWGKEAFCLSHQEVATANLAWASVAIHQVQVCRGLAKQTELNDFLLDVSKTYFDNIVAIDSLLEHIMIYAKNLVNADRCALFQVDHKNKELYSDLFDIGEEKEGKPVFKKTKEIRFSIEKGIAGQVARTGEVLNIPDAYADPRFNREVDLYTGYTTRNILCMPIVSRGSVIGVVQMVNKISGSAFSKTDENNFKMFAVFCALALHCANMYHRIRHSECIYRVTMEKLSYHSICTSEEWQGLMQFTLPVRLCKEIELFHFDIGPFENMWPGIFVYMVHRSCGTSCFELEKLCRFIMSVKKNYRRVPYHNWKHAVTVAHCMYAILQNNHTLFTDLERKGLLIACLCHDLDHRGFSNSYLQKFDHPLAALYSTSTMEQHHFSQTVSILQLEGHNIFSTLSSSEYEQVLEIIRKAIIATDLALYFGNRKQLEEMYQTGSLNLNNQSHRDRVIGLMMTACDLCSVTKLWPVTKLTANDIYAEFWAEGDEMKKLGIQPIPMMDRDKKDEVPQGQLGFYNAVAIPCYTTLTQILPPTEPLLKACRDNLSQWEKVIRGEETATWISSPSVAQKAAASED

Row | Compound | melting point [°C] | inhibition at 1 µM [1, 2] [%] | IC50 ([1]; substrate [3H]cAMP 0.2 μmol/L) [nM] | inhibition at 1 µM [1] [%]
1 | Cc1c(-c2ccc(Br)cc2)nc2ccc(F)cc2c1C(=O)O | > 300 |  |  | 
2 | Cc1c(-c2ccc(-c3ccccc3-c3ccccc3)cc2)nc2ccc(F)cc2c1N | 227 to 229 |  |  | 
3 | Cc1c(-c2ccc(-c3ccccc3CN3CCN(c4ccccc4)CC3)cc2)nc2ccc(F)cc2c1CO [Compound 11, 6-Fluoro-4-hydroxymethyl-3-methyl-2-[2′-(4-phenylpiperazin-1-yl)methylbiphenyl-4-yl]quinoline] | 154 to 156 | 90 | 173 | 
4 | Cc1c(-c2ccc(-c3ccccc3CNc3ccccc3)cc2)nc2ccc(F)cc2c1CO [Compound 13, 6-Fluoro-4-hydroxymethyl-3-methyl-2-[2′-(phenylamino)methylbiphenyl-4-yl]quinoline] | 201 to 202 | 90 | 103 | 
5 | COC(=O)c1c(C)c(-c2ccc(-c3ccccc3-c3ccccc3)cc2)nc2ccc(F)cc12 [Compound 15, Methyl 6-fluoro-3-methyl-2-([1,1′:2′,1″-terphenyl]-4-yl)quinoline-4-carboxylate] | 164 to 165 |  |  | 
6 | CC(=O)c1c(C)c(-c2ccc(-c3ccccc3-c3ccccc3)cc2)nc2ccc(F)cc12 [Compound 16, 4-Acetyl-6-fluoro-3-methyl-2-([1,1′:2′,11″-terphenyl]-4-yl)quinoline] |  |  |  | 80
7 | Cc1c(-c2ccc(-c3ccccc3-c3ccccc3)cc2)nc2ccc(F)cc2c1C#N [Compound 17, 6-Fluoro-3-methyl-2-([1,1′;2′,1″-terphenyl]-4-yl)quinoline-4-carbonitrile] | 153 to 155 | 70 | 373 | 
8 | Cc1c(-c2ccc(-c3ccccc3-c3ccccc3)cc2)nc2ccc(F)cc2c1C [Compound 18, 3,4-Dimethyl-6-fluoro-2-([1,1′:2′,1″-terphenyl]-4-yl)quinoline] | 194 to 195 | 97 | 4.8 | 
9 | COC(=O)c1c(C)c(N2CCN(c3ccccc3OC)CC2)nc2ccc(F)cc12 [Compound 19, Methyl 6-Fluoro-2-[4-(2-methoxyphenyl)piperazin-1-yl]-3-methylquinoline-4-carboxylate] | 128 to 129 |  |  | 
10 | COc1ccccc1N1CCN(c2nc3ccc(F)cc3c(CO)c2C)CC1 [Compound 20, 6-Fluoro-4-hydroxymethyl-2-[4-(2-methoxyphenyl)piperazin-1-yl]-3-methylquinoline] | 190 to 191 |  |  | 
11 | Cc1c(-c2ccc(-c3ccccc3-c3ccccc3)cc2)nc2ccc(F)cc2c1C(=O)O [Compound C, 6-Fluoro-3-methyl-2-([1,1′:2′,1″-terphenyl)-4-yl)quinoline-4-carboxylic acid] | > 300 |  | 0.9 | 99
12 | Cc1c(-c2ccc(-c3ccccc3C=O)cc2)nc2ccc(F)cc2c1C(=O)O [Compound J, 6-Fluoro-2-(2′-formylbiphenyl-4-yl)-3-methylquinoline-4-carboxylic acid] | > 300 | 99 | 16 | 

Further lines, with some results ahead:

Row | melting point [°C] | inhibition at 1 µM [1, 2] [%] | IC50 ([1]; substrate [3H]cAMP 0.2 μmol/L) [nM] | Compound | inhibition at 1 µM [1] [%]
13 | > 300 |  |  | COc1ccc(F)cc1-c1ccc(-c2nc3ccc(F)cc3c(C(=O)O)c2C)cc1 | 
14 | > 300 |  |  | COc1ccc(-c2ccc(-c3nc4ccc(F)cc4c(C(=O)O)c3C)cc2)c(OC)c1 | 
15 | 203 to 205 |  |  | Cc1c(-c2ccc(-c3ccccc3CNCCO)cc2)nc2ccc(F)cc2c1CO (as salt: hydrochloride) | 
16 | 190 to 192 |  |  | Cc1c(-c2ccc(-c3ccccc3CN3CCOCC3)cc2)nc2ccc(F)cc2c1CO (as salt: hydrochloride) [Compound 12, 6-Fluoro-4-hydroxymethyl-3-methyl-2-(2′-morpholinomethylbiphenyl-4-yl)quinoline dihydrochloride] | 
17 | 121 to 123 | 99 | 4.2 | Cc1c(-c2ccc(-c3ccccc3-c3ccccc3)cc2)nc2ccc(F)cc2c1CO [Compound 1, 6-Fluoro-4-hydroxymethyl-3-methyl-2-([1,1′:2′,1″-terphenyl]-4-yl)quinoline] | 
18 | 178 to 179 | 97 | 66 | COc1ccccc1-c1ccc(-c2nc3ccc(F)cc3c(CO)c2C)cc1 [Compound 2, 6-Fluoro-4-hydroxymethyl-2-(2′-methoxybiphenyl-4-yl)-3-methylquinoline] | 
19 | 140 to 143 | 97 | 76 | CCOc1ccccc1-c1ccc(-c2nc3ccc(F)cc3c(CO)c2C)cc1 [Compound 3, 2-(21-Ethoxybiphenyl-4-yl)-6-fluoro-4-hydroxymethyl-3-methylquinoline] | 
20 | 199 to 200 | 83 |  | CCOc1cccc(-c2ccc(-c3nc4ccc(F)cc4c(CO)c3C)cc2)c1 [Compound 4, 2-(31-Ethoxybiphenyl-4-yl)-6-fluoro-4-hydroxymethyl-3-methylquinoline] | 
21 | 211 to 212 |  |  | CCOc1ccc(-c2ccc(-c3nc4ccc(F)cc4c(CO)c3C)cc2)cc1 [Compound 5, 2-(4′-Ethoxybiphenyl-4-yl)-6-fluoro-4-hydroxymethyl-3-methylquinoline] | 
22 |  | 91 | 98 | Cc1c(-c2ccc(-c3ccccc3F)cc2)nc2ccc(F)cc2c1CO [Compound 6, 6-Fluoro-2-(2′-fluorobiphenyl-4-yl)-4-hydroxymethyl-3-methylquinoline] | 
23 | 202 to 203 | 97 | 34 | COc1ccc(F)cc1-c1ccc(-c2nc3ccc(F)cc3c(CO)c2C)cc1 [Compound 7, 6-Fluoro-2-(5′-fluoro-2′-methoxybiphenyl-4-yl)-4-hydroxymethyl-3-methylquinoline] | 
24 | 205 to 207 | 68 |  | COc1ccc(-c2ccc(-c3nc4ccc(F)cc4c(CO)c3C)cc2)c(OC)c1 [Compound 8, 2-(2′,4′-dimethoxybiphenyl-4-yl)-6-fluoro-4-hydroxym ethyl-3-methylquinoline] | 
25 | 192 to 194 |  |  | Cc1c(-c2ccc(-c3ccccc3C=O)cc2)nc2ccc(F)cc2c1CO [Compound 9] | 
26 | 193 to 195 |  |  | CNCc1ccccc1-c1ccc(-c2nc3ccc(F)cc3c(CO)c2C)cc1 [Compound 10, 6-Fluoro-4-hydroxymethyl-3-methyl-2-[2′-(methylamino)methylbiphenyl-4-yl]quinoline] | 
27 | 222 to 240 |  |  | Cc1c(-c2ccc(Br)cc2)nc2ccc(F)cc2c1CO [Compound 21, 2-(4-Bromophenyl)-6-fluoro-4-hydroxymethyl-3-methylquinoline] | 
28 |  | 99 | 5.5 | CCOc1ccccc1-c1ccc(-c2nc3ccc(F)cc3c(C(=O)O)c2C)cc1 [I, 2-(2′-Ethoxybiphenyl-4-yl)-6-fluoro-3-methylquinoline-4-carboxylic acid] | 
